From ChEMBL document CHEMBL1687812, “Interplay between drug efflux and antioxidants in Escherichia coli resistance to antibiotics” (2010)
≈ marks a conversion by molar mass, not a printed value. Calls of active or inactive are those of the source. No cut-off for these calls is given here.

Key:
[1] = tested on: Escherichia coli; assay: Antibacterial activity against wild type Escherichia coli BW25113; format: functional
[2] = tested on: Escherichia coli; assay: Antibacterial activity against tolC deficient Escherichia coli GD100; format: functional
[3] = tested on: Escherichia coli; assay: Antibacterial activity against speE deficient Escherichia coli JW0117-1; format: functional
[4] = tested on: Escherichia coli; assay: Antibacterial activity against gshB deficient Escherichia coli JW2914-1; format: functional
[5] = tested on: Escherichia coli; assay: Antibacterial activity against gspS deficient Escherichia coli JW2956-1; format: functional
[6] = tested on: Escherichia coli; assay: Antibacterial activity against ygiBC, yjfMC, gspS deficient Escherichia coli GD108; format: functional
[7] = tested on: Escherichia coli; assay: Antibacterial activity against tolC, speE deficient Escherichia coli GD106; format: functional
[8] = tested on: Escherichia coli; assay: Antibacterial activity against tolC, gshB deficient Escherichia coli GD107; format: functional
[9] = tested on: Escherichia coli; assay: Antibacterial activity against wild type Escherichia coli BW25113 absence of glutathione; format: functional
[10] = tested on: Escherichia coli; assay: Antibacterial activity against wild type Escherichia coli BW25113 presence of 5 mM of glutathione; format: functional
[11] = tested on: Escherichia coli; assay: Antibacterial activity against wild type Escherichia coli BW25113 presence of 10 mM of glutathione; format: functional
[12] = tested on: Escherichia coli; assay: Antibacterial activity against wild type Escherichia coli BW25113 presence of 15 mM of glutathione; format: functional
[13] = tested on: Escherichia coli; assay: Antibacterial activity against tolC deficient Escherichia coli GD100 absence of glutathione; format: functional
[14] = tested on: Escherichia coli; assay: Antibacterial activity against tolC deficient Escherichia coli GD100 presence of 5 mM of glutathione; format: functional
[15] = tested on: Escherichia coli; assay: Antibacterial activity against tolC deficient Escherichia coli GD100 presence of 10 mM of glutathione; format: functional
[16] = tested on: Escherichia coli; assay: Antibacterial activity against tolC deficient Escherichia coli GD100 presence of 15 mM of glutathione; format: functional, organism-based
[17] = tested on: Escherichia coli; assay: Antibacterial activity against kanamycin-resistant acrAB, acrEF deficient Escherichia coli W4680AE absence of glutathione; format: functional
[18] = tested on: Escherichia coli; assay: Antibacterial activity against kanamycin-resistant acrAB, acrEF deficient Escherichia coli W4680AE presence of 5 mM of glutathione; format: functional
[19] = tested on: Escherichia coli; assay: Antibacterial activity against kanamycin-resistant acrAB, acrEF deficient Escherichia coli W4680AE presence of 10 mM of glutathione; format: functional
[20] = tested on: Escherichia coli; assay: Antibacterial activity against kanamycin-resistant acrAB, acrEF deficient Escherichia coli W4680AE presence of 15 mM of glutathione; format: functional

| Structure (SMILES) | MIC [1] [µg/mL] | MIC [2] [µg/mL] | MIC [3] [µg/mL] | MIC [4] [µg/mL] | MIC [5] [µg/mL] | MIC [6] [µg/mL] | MIC [7] [µg/mL] | MIC [8] [µg/mL] | MIC [9] [µg/mL] | MIC [10] [µg/mL] | MIC [11] [µg/mL] | MIC [12] [µg/mL] | MIC [13] [µg/mL] | MIC [14] [µg/mL] | MIC [15] [µg/mL] | MIC [16] | MIC [17] [µg/mL] | MIC [18] [µg/mL] | MIC [19] [µg/mL] | MIC [20] [µg/mL] |
| --- | --- | --- | --- | --- | --- | --- | --- | --- | --- | --- | --- | --- | --- | --- | --- | --- | --- | --- | --- | --- |
| NCC[C@H](O)C(=O)N[C@@H]1C[C@H](N)[C@@H](O[C@H]2O[C@H](CN)[C@@H](O)[C@H](O)[C@H]2O)[C@H](O)[C@H]1O[C@H]1O[C@H](CO)[C@@H](O)[C@H](N)[C@H]1O [AMIKACIN] | 1 (≈ 1.71 µM) | 1 (≈ 1.71 µM) | 16 (≈ 27.3 µM) | 4 (≈ 6.83 µM) | 2 (≈ 3.42 µM) | 1 (≈ 1.71 µM) | 8 (≈ 13.7 µM) | 2 (≈ 3.42 µM) | – | – | – | – | – | – | – | – | – | – | – | – |
| CC1(C)S[C@@H]2[C@H](NC(=O)[C@H](N)c3ccccc3)C(=O)N2[C@H]1C(=O)O [AMPICILLIN] | 5 (≈ 14.3 µM) | 5 (≈ 14.3 µM) | 5 (≈ 14.3 µM) | 10 (≈ 28.6 µM) | 10 (≈ 28.6 µM) | 5 (≈ 14.3 µM) | 5 (≈ 14.3 µM) | 5 (≈ 14.3 µM) | – | – | – | – | – | – | – | – | – | – | – | – |
| CC[C@H]1OC(=O)[C@H](C)[C@@H](O[C@H]2C[C@@](C)(OC)[C@@H](O)[C@H](C)O2)[C@H](C)[C@@H](O[C@@H]2O[C@H](C)C[C@H](N(C)C)[C@H]2O)[C@](C)(O)C[C@@H](C)C(=O)[C@H](C)[C@@H](O)[C@]1(C)O [ERYTHROMYCIN] | 32 (≈ 43.6 µM) | 1 (≈ 1.36 µM) | 32 (≈ 43.6 µM) | 64 (≈ 87.2 µM) | 64 (≈ 87.2 µM) | 64 (≈ 87.2 µM) | 1 (≈ 1.36 µM) | 1 (≈ 1.36 µM) | 128 (≈ 174 µM) | 512 | 512 | 512 | 4 (≈ 5.45 µM) | 4 | 4 | Active | 4 (≈ 5.45 µM) | 4 | 8 | 32 |
| NC[C@H]1O[C@H](O[C@H]2[C@H](O)[C@@H](O[C@H]3O[C@H](CO)[C@@H](O)[C@H](N)[C@H]3O)[C@H](N)C[C@@H]2N)[C@H](O)[C@@H](O)[C@@H]1O [KANAMYCIN] | 0.78 (≈ 1.61 µM) | 0.78 (≈ 1.61 µM) | 12.5 (≈ 25.8 µM) | 6.25 (≈ 12.9 µM) | 1.56 (≈ 3.22 µM) | 1.56 (≈ 3.22 µM) | 6.25 (≈ 12.9 µM) | 3.12 (≈ 6.45 µM) | 1.56 (≈ 3.22 µM) | 25 | 50 | 50 | 1.56 (≈ 3.22 µM) | 25 | 50 | Active | – | – | – | – |
| CCn1cc(C(=O)O)c(=O)c2cc(F)c(N3CCNCC3)cc21 [NORFLOXACIN] | 0.04 (≈ 0.125 µM) | 0.01 (≈ 0.0313 µM) | 0.02 (≈ 0.0626 µM) | 0.04 (≈ 0.125 µM) | 0.02 (≈ 0.0626 µM) | 0.01 (≈ 0.0313 µM) | 0.005 (≈ 0.0157 µM) | 0.0025 (≈ 0.00783 µM) | 0.04 (≈ 0.125 µM) | 0.16 | 0.64 | 1.28 | 0.01 (≈ 0.0313 µM) | 0.02 | 0.08 | Active | 0.005 (≈ 0.0157 µM) | 0.01 | 0.02 | 0.16 |
| CO[C@@H]1[C@@H](OC(N)=O)[C@@H](O)[C@H](Oc2ccc3c(O)c(NC(=O)c4ccc(O)c(CC=C(C)C)c4)c(=O)oc3c2C)OC1(C)C [NOVOBIOCIN] | 32 (≈ 52.2 µM) | 1 (≈ 1.63 µM) | 64 (≈ 104 µM) | 256 (≈ 418 µM) | 64 (≈ 104 µM) | 32 (≈ 52.2 µM) | 1 (≈ 1.63 µM) | 1 (≈ 1.63 µM) | – | – | – | – | – | – | – | – | – | – | – | – |
| CN[C@@H]1[C@H](O)[C@H](NC)[C@H]2O[C@@]3(O)C(=O)C[C@@H](C)O[C@H]3O[C@@H]2[C@H]1O [SPECTINOMYCIN] | 25 (≈ 75.2 µM) | 12.5 (≈ 37.6 µM) | 25 (≈ 75.2 µM) | 25 (≈ 75.2 µM) | 25 (≈ 75.2 µM) | 25 (≈ 75.2 µM) | 25 (≈ 75.2 µM) | 12.5 (≈ 37.6 µM) | – | – | – | – | – | – | – | – | – | – | – | – |
